# Source: ChEMBL document CHEMBL3600322, “Phenoxymethyl 1,3-oxazoles and 1,2,4-oxadiazoles as potent and selective agonists of free fatty acid receptor 1 (GPR40)” (Bioorg Med Chem Lett, 2015)
# Legend:
# [1] = biological target: T1, Free fatty acid receptor 1 (Homo sapiens, UniProt O14842); test: Agonist activity at GPR40 (unknown origin) expressed in CHO cells at 5 uM by FLIPR calcium flux assay relative to GW9508; type: functional, cell-based
# [2] = biological target: T1, Free fatty acid receptor 1; test: Agonist activity at GPR40 (unknown origin) expressed in CHO cells by FLIPR calcium flux assay in presence of 0.1% bovine serum albumin; type: functional, cell-based
# CYP2C19 [3] = biological target: T2, CYP2C19 (Homo sapiens, UniProt P33261); test: Inhibition of CYP2C19 (unknown origin) at 24 uM by luminescent readout-based method; type: ADME
# T2 sequence (P33261 whole entry): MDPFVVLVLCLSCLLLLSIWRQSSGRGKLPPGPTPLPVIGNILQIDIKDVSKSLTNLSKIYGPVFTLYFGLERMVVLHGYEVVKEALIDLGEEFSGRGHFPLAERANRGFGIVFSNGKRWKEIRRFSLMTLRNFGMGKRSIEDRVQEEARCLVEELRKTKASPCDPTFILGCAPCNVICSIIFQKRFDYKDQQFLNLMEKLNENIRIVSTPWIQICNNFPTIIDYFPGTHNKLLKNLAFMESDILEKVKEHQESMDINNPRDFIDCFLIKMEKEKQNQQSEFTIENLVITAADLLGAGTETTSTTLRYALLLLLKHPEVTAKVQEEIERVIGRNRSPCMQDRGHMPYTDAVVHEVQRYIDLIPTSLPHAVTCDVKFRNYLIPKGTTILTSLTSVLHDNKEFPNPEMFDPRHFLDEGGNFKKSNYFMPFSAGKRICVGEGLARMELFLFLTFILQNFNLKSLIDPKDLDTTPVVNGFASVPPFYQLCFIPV
# CYP2D6 [4] = biological target: T3, CYP2D6 (Homo sapiens, UniProt P10635); test: Inhibition of CYP2D6 (unknown origin) at 1 uM by luminescent readout-based method
# T3 sequence (P10635 whole entry): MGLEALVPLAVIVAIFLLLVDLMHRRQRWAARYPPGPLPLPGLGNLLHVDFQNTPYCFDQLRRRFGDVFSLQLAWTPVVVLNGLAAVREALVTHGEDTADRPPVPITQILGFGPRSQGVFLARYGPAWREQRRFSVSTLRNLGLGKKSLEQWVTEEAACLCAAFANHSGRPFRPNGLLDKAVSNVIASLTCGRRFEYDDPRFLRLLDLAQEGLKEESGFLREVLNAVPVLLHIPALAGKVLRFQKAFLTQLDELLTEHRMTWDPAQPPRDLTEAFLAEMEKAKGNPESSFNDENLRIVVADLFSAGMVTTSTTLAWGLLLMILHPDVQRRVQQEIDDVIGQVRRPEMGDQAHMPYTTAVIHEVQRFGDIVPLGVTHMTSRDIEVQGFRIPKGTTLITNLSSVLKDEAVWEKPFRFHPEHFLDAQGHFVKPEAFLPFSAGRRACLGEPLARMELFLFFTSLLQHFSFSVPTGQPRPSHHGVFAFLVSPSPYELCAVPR
# [5] = biological target: T4, Free fatty acid receptor 2 (Homo sapiens, UniProt O15552); test: Agonist activity at GPR43 (unknown origin) expressed in CHO cells by FLIPR calcium flux assay in presence of 0.1% bovine serum albumin; type: functional, cell-based
# T4 sequence (O15552 whole entry): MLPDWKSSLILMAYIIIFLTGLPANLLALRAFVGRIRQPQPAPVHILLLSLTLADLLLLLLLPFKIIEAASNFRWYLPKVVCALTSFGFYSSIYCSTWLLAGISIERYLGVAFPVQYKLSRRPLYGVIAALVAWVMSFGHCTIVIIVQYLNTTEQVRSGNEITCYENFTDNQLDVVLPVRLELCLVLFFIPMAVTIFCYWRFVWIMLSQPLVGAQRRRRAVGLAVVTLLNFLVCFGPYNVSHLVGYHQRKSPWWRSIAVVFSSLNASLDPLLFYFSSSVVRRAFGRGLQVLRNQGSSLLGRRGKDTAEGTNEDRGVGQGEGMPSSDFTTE
# [6] = Kinetic solubility of the compound in phosphate-buffered saline at pH 7.4 by filter microplate technique; type: physicochemical; details: read-out: Kinetic_solubility
# [7] = biological target: T5, Free fatty acid receptor 3 (Homo sapiens, UniProt O14843); test: Agonist activity at GPR41 (unknown origin) expressed in CHO cells by FLIPR calcium flux assay in presence of 0.1% bovine serum albumin; type: functional, cell-based
# T5 sequence (O14843 whole entry): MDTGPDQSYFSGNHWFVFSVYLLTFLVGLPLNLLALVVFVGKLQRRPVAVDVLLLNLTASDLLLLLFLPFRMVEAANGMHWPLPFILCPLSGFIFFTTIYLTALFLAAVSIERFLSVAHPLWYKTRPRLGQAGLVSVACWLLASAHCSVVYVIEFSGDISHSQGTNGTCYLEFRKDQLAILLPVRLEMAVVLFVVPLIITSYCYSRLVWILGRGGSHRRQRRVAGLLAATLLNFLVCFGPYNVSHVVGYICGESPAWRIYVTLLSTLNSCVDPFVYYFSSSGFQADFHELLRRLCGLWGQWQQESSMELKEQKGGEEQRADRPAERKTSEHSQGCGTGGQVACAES
# [8] = Apparent permeability from apical to basolateral side in human Caco2 cells assessed […] at 10 uM by HPLC-MS analysis; type: ADME, cell-based; details: Caco-2
# CYP1A2 = biological target: T6, CYP1A2 (Homo sapiens, UniProt P05177); test: Inhibition of CYP1A2 (unknown origin) at 5 uM by luminescent readout-based method; type: ADME
# T6 sequence (P05177 whole entry): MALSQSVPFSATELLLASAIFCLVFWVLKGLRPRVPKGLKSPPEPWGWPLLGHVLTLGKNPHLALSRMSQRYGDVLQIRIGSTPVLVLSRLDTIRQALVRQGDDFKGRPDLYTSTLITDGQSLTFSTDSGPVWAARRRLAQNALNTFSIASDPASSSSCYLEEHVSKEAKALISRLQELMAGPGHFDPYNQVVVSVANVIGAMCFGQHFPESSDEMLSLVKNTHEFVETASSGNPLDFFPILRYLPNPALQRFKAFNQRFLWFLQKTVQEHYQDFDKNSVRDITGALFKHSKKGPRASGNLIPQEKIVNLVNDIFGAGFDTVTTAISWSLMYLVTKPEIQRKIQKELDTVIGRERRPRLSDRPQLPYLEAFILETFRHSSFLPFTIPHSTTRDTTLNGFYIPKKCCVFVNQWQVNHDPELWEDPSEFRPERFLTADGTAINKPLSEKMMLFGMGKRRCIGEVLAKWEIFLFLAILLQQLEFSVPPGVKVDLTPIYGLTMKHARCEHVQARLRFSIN
# CYP2D6 [9] = biological target: T3, CYP2D6; test: Inhibition of CYP2D6 (unknown origin) at 5 uM by luminescent readout-based method; type: ADME
# [10] = biological target: T7, Free fatty acid receptor 4 (Homo sapiens, UniProt Q5NUL3); test: Agonist activity at GPR120 (unknown origin) expressed in CHO cells by FLIPR calcium flux assay in presence of 0.1% bovine serum albumin; type: functional, cell-based
# T7 sequence (Q5NUL3 whole entry): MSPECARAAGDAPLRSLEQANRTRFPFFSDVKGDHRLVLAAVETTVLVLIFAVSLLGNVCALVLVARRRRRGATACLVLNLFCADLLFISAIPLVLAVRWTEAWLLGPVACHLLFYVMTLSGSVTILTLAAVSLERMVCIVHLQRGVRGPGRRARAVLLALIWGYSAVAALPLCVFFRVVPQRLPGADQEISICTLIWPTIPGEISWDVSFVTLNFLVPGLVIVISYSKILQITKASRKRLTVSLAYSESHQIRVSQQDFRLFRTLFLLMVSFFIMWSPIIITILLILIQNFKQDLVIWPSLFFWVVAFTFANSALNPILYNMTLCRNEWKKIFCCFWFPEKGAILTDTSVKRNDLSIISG
# CYP3A4 = CYP3A4 (Homo sapiens, UniProt P08684); test: Inhibition of CYP3A4 (unknown origin) at 5 uM by luminescent readout-based method; type: ADME
# Chain of CYP3A4 (P08684 whole entry): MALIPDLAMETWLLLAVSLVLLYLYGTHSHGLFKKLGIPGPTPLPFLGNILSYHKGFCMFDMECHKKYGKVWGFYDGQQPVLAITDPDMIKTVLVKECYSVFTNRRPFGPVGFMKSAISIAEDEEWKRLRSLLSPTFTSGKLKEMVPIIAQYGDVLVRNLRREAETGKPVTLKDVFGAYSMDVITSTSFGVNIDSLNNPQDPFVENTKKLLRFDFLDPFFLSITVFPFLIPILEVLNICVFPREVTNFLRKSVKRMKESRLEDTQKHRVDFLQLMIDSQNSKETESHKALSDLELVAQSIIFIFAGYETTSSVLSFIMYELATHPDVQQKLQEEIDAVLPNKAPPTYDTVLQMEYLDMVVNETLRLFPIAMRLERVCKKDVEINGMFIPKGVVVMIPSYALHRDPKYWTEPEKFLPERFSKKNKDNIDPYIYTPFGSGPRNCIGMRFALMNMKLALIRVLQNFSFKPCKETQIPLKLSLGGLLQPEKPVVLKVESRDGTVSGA
# [11] = Plasma protein binding in human at 1 uM after 5 hrs by HPLC-MS/MS analysis; type: ADME, cell-free; details: read-out: PPB (converted)
# CYP2C19 [12] = biological target: T2, CYP2C19; test: Inhibition of CYP2C19 (unknown origin) at 5 uM by luminescent readout-based method; type: ADME
# CYP2C9 = CYP2C9 (Homo sapiens, UniProt P11712); test: Inhibition of CYP2C9 (unknown origin) at 5 uM by luminescent readout-based method; type: ADME
# Chain of CYP2C9 (P11712 whole entry): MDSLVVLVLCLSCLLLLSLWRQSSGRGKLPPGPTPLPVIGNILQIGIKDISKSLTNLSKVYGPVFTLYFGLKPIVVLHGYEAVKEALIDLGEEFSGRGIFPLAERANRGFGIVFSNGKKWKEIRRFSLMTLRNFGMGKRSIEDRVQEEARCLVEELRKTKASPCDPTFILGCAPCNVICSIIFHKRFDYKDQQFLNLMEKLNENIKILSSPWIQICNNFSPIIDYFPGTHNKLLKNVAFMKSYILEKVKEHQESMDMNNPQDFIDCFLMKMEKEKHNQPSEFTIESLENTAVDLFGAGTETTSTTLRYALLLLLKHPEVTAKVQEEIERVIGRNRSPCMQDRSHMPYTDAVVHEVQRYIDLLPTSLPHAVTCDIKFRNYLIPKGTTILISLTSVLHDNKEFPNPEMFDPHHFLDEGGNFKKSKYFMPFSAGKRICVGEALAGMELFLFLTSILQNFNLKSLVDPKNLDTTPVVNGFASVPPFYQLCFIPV
# [13] = Half life in BALB/c mouse liver microsomes at 2 uM by HPLC-MS analysis; type: ADME
# T1 sequence (O14842 whole entry): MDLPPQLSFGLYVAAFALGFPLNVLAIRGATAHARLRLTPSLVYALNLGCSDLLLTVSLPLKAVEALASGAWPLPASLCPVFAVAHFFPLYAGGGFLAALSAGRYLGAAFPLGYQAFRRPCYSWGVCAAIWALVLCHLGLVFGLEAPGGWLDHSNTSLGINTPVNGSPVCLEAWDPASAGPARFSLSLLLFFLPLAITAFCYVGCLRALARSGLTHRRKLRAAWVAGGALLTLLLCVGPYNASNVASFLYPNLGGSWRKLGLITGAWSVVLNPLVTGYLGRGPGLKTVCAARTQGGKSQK
SMILES,Efficacy [1],EC50 [2],further results
COc1ccc2[nH]c([S+]([O-])Cc3ncc(C)c(OC)c3C)nc2c1 (stereo not drawn) [OMEPRAZOLE],–,–,inhibition at 24 µM (CYP2C19 [3]): 93.4%
COc1cccc(-c2noc(COc3ccc(CCC(=O)O)cc3Cl)n2)c1,88%,3000 nM,–
C=C[C@H]1C[N@@]2CC[C@H]1C[C@@H]2[C@@H](O)c1ccnc2ccc(OC)cc12 [QUINIDINE],–,–,inhibition at 1 µM (CYP2D6 [4]): 96.2%
O=C(O)CCc1ccc(OCc2nc(-c3ccco3)no2)cc1,–,> 100000 nM,–
O=C(O)CCc1ccc(OCc2ncc(-c3cccc(F)c3)o2)cc1,81%,1070 nM,–
O=C(O)CCc1ccc(OCc2ncc(-c3cccc(Cl)c3)o2)cc1,30%,47500 nM,–
Cc1oc(-c2ccccc2)nc1COc1ccc(CCC(=O)O)cc1,103%,58 nM,"EC50 [5]: > 10000 nM; solubility kinetic [6]: 404 µM; EC50 [7]: > 10000 nM; Papp A→B at 10 µM [8]: 15.2 ×10⁻⁶ cm/s; inhibition at 5 µM (CYP1A2): 8.9%; inhibition at 5 µM (CYP2D6 [9]): 17.7%; EC50 [10]: > 10000 nM; inhibition at 5 µM (CYP3A4): 36.2%; fraction unbound at 5 h, 1 µM [11]: 0.014; inhibition at 5 µM (CYP2C19 [12]): 23.6%; inhibition at 5 µM (CYP2C9): 10.8%; half-life at 2 µM [13]: 7.23 h"

# Now from value to compound, other results behind:
Efficacy [1],EC50 [2],SMILES,further results
65%,1110 nM,O=C(O)CCc1ccc(OCc2nc(-c3cccc(C(F)(F)F)c3)no2)cc1,–
75%,2120 nM,Cc1cc(-c2noc(COc3ccc(CCC(=O)O)cc3)n2)ccc1F,–
61%,1200 nM,O=C(O)CCc1ccc(OCc2nc(-c3ccccc3Cl)no2)cc1,–
130%,1260 nM,O=C(O)CCc1ccc(OCc2nc(-c3cccc(Br)c3)no2)cc1,–
66%,680 nM,O=C(O)CCc1ccc(OCc2nc(-c3ccc(F)cc3)no2)cc1,–
73%,610 nM,O=C(O)CCc1ccc(OCc2nc(-c3ccc(C(F)(F)F)cc3)no2)cc1,–
106%,210 nM,CCc1ccc(-c2noc(COc3ccc(CCC(=O)O)cc3)n2)cc1,–
99%,300 nM,Cc1ccc(-c2noc(COc3ccc(CCC(=O)O)cc3)n2)cc1,"EC50 [5]: > 10000 nM; solubility kinetic [6]: 334 µM; EC50 [7]: > 10000 nM; Papp A→B at 10 µM [8]: 27.3 ×10⁻⁶ cm/s; inhibition at 5 µM (CYP1A2): 13.6%; inhibition at 5 µM (CYP2D6 [9]): -8.3%; EC50 [10]: > 10000 nM; inhibition at 5 µM (CYP3A4): 29.2%; fraction unbound at 5 h, 1 µM [11]: 0.015; inhibition at 5 µM (CYP2C19 [12]): 20.6%; inhibition at 5 µM (CYP2C9): 4.26%; half-life at 2 µM [13]: 6.22 h"
65%,1130 nM,O=C(O)CCc1ccc(OCc2nc(-c3ccccc3)no2)cc1,–
